Reference: ChEMBL document CHEMBL1135516, “Three-dimensional quantitative structure-activity relationship analysis of ligand binding to human sequence antidigoxin monoclonal antibodies using comparative molecular field analysis” (J Med Chem, 2002)
Activity calls are given as the source filed them. The rule behind the calls is not given here.

Columns and labels:
[1] = system: Monoclonal antibody (mAb); test: Binding affinity against murine monoclonal antibody (mAb)-40-50
[2] = system: Monoclonal antibody (mAb); test: Binding affinity against human monoclonal antibody (mAb)-5C2
[3] = system: Monoclonal antibody (mAb); test: Binding affinity against human monoclonal antibody (mAb)-7F2
[4] = system: Monoclonal antibody (mAb); test: Binding affinity against human monoclonal antibody (mAb)-1B3
[5] = system: Monoclonal antibody (mAb); test: Binding affinity against human monoclonal antibody (mAb)-11E6

| Compound | Relative Ki [1] | IC50 ratio [2] | IC50 ratio [3] | IC50 ratio [4] | IC50 ratio [5] |
| --- | --- | --- | --- | --- | --- |
| CC(=O)O[C@H]1C[C@]2(O)[C@@H]3CC[C@@H]4C[C@@H](O[C@H]5C[C@H](O)[C@H](O)[C@@H](C)O5)CC[C@]4(C)[C@H]3CC[C@]2(C)[C@H]1C1=CC(=O)OC1 | 4 | – | – | – | – |
| C[C@]12CC[C@@H](O)C[C@H]1CC[C@@H]1[C@@H]2C[C@@H](O)[C@]2(C)[C@@H](C3=CC(=O)OC3)CCC12O (some centres not stated) | 12 | – | – | – | – |
| CO[C@H]1[C@@H](O)[C@@H](C)O[C@@H](O[C@H]2CC[C@@]3(C)[C@H](CC[C@@H]4[C@@H]3CC[C@]3(C)[C@@H](C5=CC(=O)OC5)C(O)C[C@]43O)C2)[C@@H]1O (some centres not stated) | 35 | – | – | – | – |
| CC(=O)O[C@H]1CC[C@@]2(C)[C@H](CC[C@@H]3[C@@H]2CC[C@]2(C)[C@@H](C4=CC(=O)OC4)[C@@H](O)C[C@]32O)C1 | 74 | – | – | – | – |
| CC(=O)O[C@@H]1C[C@H]2[C@@H](CC[C@@H]3C[C@@H](O[C@H]4C[C@H](O)[C@H](O[C@H]5C[C@H](O)[C@H](O[C@H]6C[C@H](O)[C@H](O)[C@@H](C)O6)[C@@H](C)O5)[C@@H](C)O4)CC[C@@]32C)[C@@]2(O)CCC(C3=CC(=O)OC3)[C@@]12C (some centres not stated) | 0.5 | – | – | – | – |
| C[C@]12CCC(=O)C=C1CC[C@@H]1[C@@H]2[C@@H](O)C[C@]2(C=O)[C@@H](C(=O)CO)CC[C@@H]12 | – | 550 | 540 | inactive | 760 |
| CC(=O)O[C@]1(C(C)=O)CC[C@H]2[C@@H]3C=C(Cl)C4=CC(=O)CC[C@]4(C)[C@H]3CC[C@@]21C | – | – | No inhibition | No inhibition | – |
| C[C@]12CCC(=O)C=C1CC[C@@H]1[C@@H]2[C@@H](O)C[C@@]2(C)[C@H]1CC[C@]2(O)C(=O)CO | – | 650 | 1100 | No inhibition | 3700 |
| CO[C@@H]1[C@H](O)[C@@H](O[C@@H]2C[C@H]3CC[C@@H]4[C@H](CC[C@]5(C)[C@@H](C6=CC(=O)OC6)CC[C@]45O)[C@@]3(C)[C@H](O)C2)O[C@@H](C)[C@@H]1O | 0.5 | – | – | – | – |
| CC1CC(O[C@H]2CC[C@@]3(C)[C@H](CC[C@@H]4[C@@H]3CC[C@]3(C)[C@@H](C5=CC(=O)OC5)CC[C@]43O)C2)CC(O)C1O (some centres not stated) | – | 47 | 29 | 36 | 25 |
| C[C@H]1O[C@@H](O[C@H]2[C@@H](O)C[C@H](O[C@H]3[C@@H](O)C[C@@H](O[C@H]4CC[C@@]5(C)[C@H](CC[C@@H]6[C@@H]5C[C@@H](O)[C@]5(C)[C@@H](C7=CC(=O)OC7)CC[C@]65O)C4)O[C@@H]3C)O[C@@H]2C)C[C@H](O)[C@@H]1O | 280 | – | – | – | – |
| C[C@]12C=CC(=O)C=C1CC[C@@H]1[C@@H]2C(=O)C[C@@]2(C)[C@H]1CC[C@]2(O)C(=O)CO | – | 3400 | No inhibition | No inhibition | No inhibition |
| C[C@H]1O[C@@H](O[C@H]2[C@@H](O)C[C@H](O[C@H]3[C@@H](O)C[C@H](O[C@H]4CC[C@@]5(C)[C@H](CC[C@@H]6[C@@H]5CC[C@]5(C)[C@H](C7COC(=O)C7)CC[C@]65O)C4)O[C@@H]3C)O[C@@H]2C)C[C@H](O)[C@@H]1O (some centres not stated) | – | – | 1800 | 340 | – |
| CC(=O)O[C@H]1[C@H]2O[C@]23[C@@H]2CC[C@@H]4C[C@@H](O)CC[C@]4(C)[C@H]2CC[C@]3(C)[C@H]1c1ccc(=O)oc1 | – | 570 | 1700 | 98000 | 800 |
| C[C@]12CC[C@H](O)C[C@H]1CC[C@@H]1[C@@H]2CC[C@]2(C)[C@@H](c3ccc(=O)oc3)CC[C@]12O | – | 250 | 550 | 6700 | 260 |
| CC(=O)O[C@H]1C[C@]2(O)[C@@H]3CC[C@@H]4C[C@@H](O)CC[C@]4(C)[C@H]3CC[C@]2(C)[C@H]1C1=CC(=O)OC1 | 8600 | – | – | – | – |
| C[C@]12C[C@H](O)[C@H]3[C@@H](CCC4=CC(=O)CC[C@@]43C)[C@@H]1CC[C@@H]2C(=O)CO | – | 420 | 390 | 14000 | 970 |
| C[C@H]1O[C@@H](O[C@H]2[C@@H](O)C[C@H](O[C@H]3CC[C@@]4(C)[C@H](CC[C@@H]5[C@@H]4CC[C@]4(C)[C@@H](C6=CC(=O)OC6)CC[C@]54O)C3)O[C@@H]2C)C[C@H](O)[C@@H]1O | – | 14 | 14 | 4.9 | 11 |
| CC(=O)O[C@H]1C[C@H](O[C@H]2CC[C@@]3(C)[C@H](CC[C@@H]4[C@@H]3C[C@@H](O)[C@]3(C)C(C5=CC(=O)OC5)CC[C@]43O)C2)O[C@H](C)[C@H]1O[C@H]1C[C@H](O)[C@H](O[C@H]2C[C@H](O)[C@H](O)[C@@H](C)O2)[C@@H](C)O1 (some centres not stated) | – | 0.9 | 1 | 0.9 | 1.5 |
| C[C@]12CC[C@H]3[C@@H](CCC4=CC(=O)CC[C@@]43C)[C@@H]1CC[C@@H]2O | – | 120 | 100 | inactive | 110 |

| Compound | Relative Ki [1] | IC50 ratio [2] | IC50 ratio [3] | IC50 ratio [4] | IC50 ratio [5] |
| --- | --- | --- | --- | --- | --- |
| CC(=O)O[C@H]1C[C@H](O[C@H]2[C@@H](O)C[C@H](O[C@H]3[C@@H](O)C[C@H](O[C@H]4CC[C@@]5(C)[C@H](CC[C@@H]6[C@@H]5CC[C@]5(C)[C@@H](C7=CC(=O)OC7)CC[C@]65O)C4)O[C@@H]3C)O[C@@H]2C)O[C@H](C)[C@H]1O | – | 48 | 25 | 3.9 | 20 |
| C[C@H]1O[C@@H](O[C@H]2[C@@H](O)C[C@H](O[C@H]3[C@@H](O)C[C@@H](O[C@H]4CC[C@@]5(C)[C@H](CC[C@@H]6[C@@H]5C[C@@H](O)[C@]5(C)[C@@H](C7=CC(=O)OC7)[C@@H](O)C[C@]65O)C4)O[C@@H]3C)O[C@@H]2C)C[C@H](O)[C@@H]1O | 33 | – | – | – | – |
| CC(=O)OCC(=O)[C@@]1(O)CC[C@H]2[C@@H]3CCC4=CC(=O)C=C[C@]4(C)[C@H]3[C@@H](O)C[C@@]21C | – | – | 12000 | No inhibition | – |
| C[C@H]1O[C@@H](O[C@H]2[C@@H](O)C[C@H](O[C@H]3[C@@H](O)C[C@H](O[C@H]4CC[C@@]5(C)[C@H](CC[C@@H]6[C@@H]5CC[C@]5(C)[C@@H](C7=CC(=O)OC7)[C@@H](OC=O)C[C@]65O)C4)O[C@@H]3C)O[C@@H]2C)C[C@H](O)[C@@H]1O | 35 | – | – | – | – |
| C[C@]12CC[C@@H]3c4ccc(O)cc4CC[C@H]3[C@@H]1CC[C@@H]2O | – | inactive | inactive | inactive | inactive |
| C[C@]12CC[C@H]3[C@@H](CC[C@]4(O)C[C@@H](O)CC[C@]34CO)[C@@]1(O)CC[C@@H]2C1=CC(=O)OC1 | 4 | – | – | – | – |
| CC(C)CCC[C@@H](C)[C@H]1CC[C@H]2[C@@H]3CC=C4C[C@@H](O)CC[C@]4(C)[C@H]3CC[C@]12C | – | inactive | inactive | inactive | inactive |
| C[C@]12CCC(=O)C=C1CC[C@@H]1[C@@H]2C(=O)C[C@@]2(C)[C@H]1CC[C@]2(O)C(=O)CO | – | No inhibition | No inhibition | No inhibition | No inhibition |
| C[C@H]1O[C@@H](O[C@@H]2CC[C@@]3(O)CC[C@@H]4[C@H](CC[C@]5(C)[C@@H](C6=CC(=O)OC6)CC[C@]45O)[C@@]3(C=O)C2)C[C@H](O)[C@@H]1O | – | 3000 | 2100 | 6200 | 2500 |
| C[C@H]1O[C@@H](O[C@H]2[C@@H](O)C[C@H](O[C@H]3CC[C@@]4(C)[C@H](CC[C@@H]5[C@@H]4C[C@@H](O)[C@]4(C)[C@@H](C6=CC(=O)OC6)CC[C@]54O)C3)O[C@@H]2C)C[C@H](O)[C@@H]1O | – | 1.3 | 1 | 1.6 | 0.9 |
| CC(=O)O[C@H]1C[C@H](O[C@H]2[C@@H](O)C[C@H](O[C@H]3[C@@H](O)C[C@H](O[C@H]4CC[C@@]5(C)[C@H](CC[C@@H]6[C@@H]5C[C@@H](O)[C@]5(C)[C@@H](C7=CC(=O)OC7)CC[C@]65O)C4)O[C@@H]3C)O[C@@H]2C)O[C@H](C)[C@H]1O[C@@H]1O[C@H](CO)[C@@H](O)[C@H](O)[C@H]1O | – | 1.1 | 1.4 | 1.6 | 1.6 |
| CC(=O)O[C@]1(C(C)=O)CC[C@H]2[C@@H]3CCC4=C/C(=N/OCC(=O)O)CC[C@]4(C)[C@H]3CC[C@@]21C | – | – | No inhibition | No inhibition | – |
| C[C@]12CC[C@H](O)C[C@H]1CC[C@@H]1[C@@H]2C[C@@H](O)[C@]2(C)[C@@H]([C@@H]3COC(=O)C3)CC[C@]12O | 300 | – | – | – | – |
| C[C@]12CC[C@H](O)CC1=CC[C@@H]1[C@@H]2CC[C@]2(C)C(=O)CC[C@@H]12 | – | – | – | No inhibition | – |
| C[C@]12CC[C@@H](O)C[C@@H]1CC[C@@H]1[C@@H]2CC[C@]2(C)C(=O)CC[C@@H]12 | – | inactive | 1300 | inactive | 1800 |
| C[C@]12C=CC(=O)C=C1CC[C@@H]1[C@@H]2[C@@H](O)C[C@@]2(C)[C@H]1CC[C@]2(O)C(=O)COC(=O)CCC(=O)O | – | – | 3400 | 160000 | – |
| CO[C@H]1C(O)[C@H](O[C@H]2CC[C@@]3(C)[C@H](CC[C@@H]4[C@@H]3CC[C@]3(C)[C@@H](C5=CC(=O)OC5)CC[C@]43O)C2)O[C@@H](C)[C@@H]1O[C@@H]1O[C@H](CO[C@@H]2O[C@H](CO)[C@@H](O)[C@H](O)[C@H]2O)[C@@H](O)[C@H](O)[C@H]1O (some centres not stated) | – | 7.6 | 8.6 | 97 | 18 |
| C[C@@H]1O[C@@H](O[C@@H]2C=C3CC[C@@H]4[C@H](CC[C@]5(C)[C@@H](c6ccc(=O)oc6)CC[C@]45O)[C@@]3(C)CC2)[C@H](O)[C@H](O)[C@H]1O | – | 400 | 69 | 670 | 800 |
| C[C@]12CC[C@H](O)CC1CC[C@@H]1[C@@H]2CC[C@]2(C)[C@@H](C3=CC(=O)OC3)CC[C@]12O (single isomer, unassigned) | – | 3.6 | 4.1 | 4900 | 6.7 |
